Reference: US20250206751A1, “HETEROCYCLIC COMPOUND FOR INDUCING DEGRADATION OF G12D MUTANT KRAS PROTEIN” (Astellas Pharma Inc., priority 2022, published 2025)

Key:
[1] = system: phosphorylation of threonine 202 (Thr202) and tyrosine 204 (Tyr204) of ERK; experiment: ERK phosphorylation inhibitory effect by Cell ELISA in AsPC-1 (Test Example 2); type: cell-based, human; details: Homo sapiens, ASPC1, AsPC-1 cells, cultured overnight with compound; 1 μM trametinib taken as 0%
Protocol: Test Example 2: Evaluation of ERK Phosphorylation Inhibitory Effect on Human G12D Mutant KRAS-Positive Pancreatic Cancer Line AsPC-1
The ERK phosphorylation inhibitory effect of test compounds was evaluated by measuring phosphorylation of threonine 202 (Thr202) and tyrosine 204 (Tyr204) of ERK located downstream of the KRAS signal by Cell ELISA.
AsPC-1 cells were seeded on 384-well plates at 36 μL/well to give 2.0×10^4 cells per well. As for the cell culture conditions, RPMI 1640 medium containing 10% fetal bovine serum was used in the presence of 5% CO2 at 37° C.
The next day, the test compounds (10 points having final concentrations in the range of 10 μM to 0.3 nM), trametinib (MEK inhibitor) of a final concentration of 1 μM as positive control and DMSO, which was the solvent for the test compounds, as negative control were diluted 100-fold with a fresh medium and were added at 4 μL per well. The cells were cultured overnight. After culturing, 30% glyoxal solution (40% glyoxal [from Nacalai Tesque] was diluted with PBS) was quickly added at 30 μL per well, and the plate was allowed to stand for 60 minutes at room temperature to thus immobilize the cells. Then, the plate was centrifuged to remove the supernatant (using a centrifugal dehydrator machine, the supernatant was removed by the same method hereinafter), and 0.1% Triton X-100-containing PBS was added at 20 μL per well. After allowing to stand for 10 minutes at room temperature, the supernatant was removed, and the same operation was further repeated. Next, 0.5% SDS-containing PBS was added at 20 μL per well, and after allowing to stand at room temperature for 30 minutes, the supernatant was removed. Subsequently, blocking solution (Intercept Blocking Buffer) was added at 20 μL per well, and the plate was allowed to stand for 1 hour at room temperature. The supernatant was removed, and an ERK (Thr202/Tyr204) phosphorylation antibody (Phospho-p44/42 MAPK (Erk 1/2) (Thr202/Tyr204) (D13.14.4E) XP Rabbit mAb; from Cell Signaling Technology) diluted 2,500-fold with blocking solution was added at 15 μL per well as a primary antibody. The plates were allowed to stand at 4° C. overnight.
The next day, the supernatant was removed. 0.05% Tween-20 (from Thermo Fisher Scientific)-containing PBS was added at 50 μL per well, and the supernatant was removed to thus wash each well. The washing was performed three times in total. After washing, Goat anti-Rabbit IgG H&L (IRDye 800CW) diluted 1,000-fold with blocking solution was added at 15 μL per well as a secondary antibody, and the plates were allowed to stand for 1 hour at room temperature. The supernatant was removed, and each well was washed three times with 0.05% Tween-20-containing PBS in the same manner as after the primary antibody reaction. After removing the supernatant, the plates were dried with air at room temperature for 3 hours or more, and the 800-nm fluorescent signals were measured with Aerius.
With the signaling value at the time of addition of DMSO taken as 100% and with the signaling value at the time of addition of 1 μM trametinib taken as 0%, the 50% inhibitory concentration values (IC50) were calculated by Sigmoid-Emax nonlinear regression analysis.

KRAS G12D protein = target: T1, KRAS G12D protein (Homo sapiens, UniProt P01116, G12D); experiment: KRAS degradation activity by Cell ELISA in AsPC-1 (Test Example 1); type: cell-based; details: AsPC-1 cells, cultured overnight with compound, corrected with β-actin, read-out: DC50 (50% degradation concentration of the amounts of KRAS)
T1 construct: host or cells: AsPC-1
T1 sequence (P01116 1-188 isoform P01116-2 G12D): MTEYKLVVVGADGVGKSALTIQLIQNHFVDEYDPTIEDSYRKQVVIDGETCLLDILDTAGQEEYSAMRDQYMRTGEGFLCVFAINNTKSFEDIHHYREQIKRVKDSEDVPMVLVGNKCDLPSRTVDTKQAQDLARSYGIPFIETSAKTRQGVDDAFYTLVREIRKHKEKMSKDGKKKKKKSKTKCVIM
Protocol: Test Example 1: Evaluation of KRAS Degradation Activity on Human G12D Mutant KRAS-Positive Pancreatic Cancer Line AsPC-1 (CRL-1682; ATCC)
The KRAS degradation activity of test compounds was evaluated by measuring the expression levels of KRAS G12D protein by Cell ELISA.
AsPC-1 cells were seeded at 20 μL per well on 384-well plates (from Greiner bio-one) to give 2.0×10^4 cells per well. As for the cell culture conditions, RPMI 1640 (from Sigma-Aldrich) medium containing 10% fetal bovine serum (from Cytiva) was used in the presence of 5% CO2 at 37° C.
The next day, the test compounds (10 points having final concentrations in the range of 10 μM to 0.3 nM) and DMSO (from FUJIFILM Wako Pure Chemical Corporation), which was the solvent for the test compounds, as a negative control were diluted 500-fold with a fresh medium and were added at 20 μL per well. The cells were cultured overnight.
The next day, the culture supernatant was removed, and 4% paraformaldehyde phosphate buffer (from FUJIFILM Wako Pure Chemical Corporation) was added at 20 μL per well. The plates were allowed to stand for 30 minutes at room temperature to thus immobilize the cells. Then, the supernatant was removed, and 0.1% Triton X-100 (from Amersham Biosciences)-containing Phosphate buffered saline (PBS; from FUJIFILM Wako Pure Chemical Corporation) was added at 20 μL per well. After allowing to stand for 10 minutes at room temperature, the supernatant was removed. PBS was added at 25 μL per well, and the supernatant was removed to thus wash each well. The washing was performed twice in total. Next, the supernatant was removed, and 0.5% sodium dodecyl sulfate (SDS; from Invitrogen)-containing PBS was added at 20 μL per well. After allowing to stand at room temperature for 10 minutes, the supernatant was removed by a centrifugal operation (using a centrifugal dehydrator machine, the supernatant was removed by the same method hereinafter). PBS was added at 25 μL per well, and the supernatant was removed to thus wash each well. The washing was performed twice in total. The supernatant was removed, and blocking solution (Intercept Blocking Buffer; from Li-COR Biosciences) was added at 20 μL per well. After allowing to stand for 30 minutes at room temperature, the supernatant was removed, and a solution obtained by diluting anti-β-actin antibody (Anti-beta Actin antibody [mAbcam 8226]-Loading Control; from abcam) 1,000-fold with blocking solution and a solution obtained by diluting anti-Ras (G12D Mutant Specific) antibody (Ras (G12D Mutant Specific) (D8H7) Rabbit mAb #14429; from Cell Signaling Technology) and anti-β-actin antibody (from abcam) 1,000-fold with blocking solution were respectively added to positive control wells and the other wells at 20 μL per well as a primary antibody. The plate was allowed to stand overnight at 4° C.
The next day, the supernatant was removed. PBS was added at 25 μL per well, and the supernatant was removed to thus wash each well. The washing was performed twice in total. The supernatant was removed, and a solution obtained by diluting Donkey anti-Mouse IgG H&L (IRDye 680RD) (from Li-COR Biosciences) and Goat anti-Rabbit IgG H&L (IRDye 800CW) (from Li-COR Biosciences) 1,000-fold with blocking solution was added at 20 μL per well as a secondary antibody. After allowing to stand for 1 hour at room temperature, the supernatant was removed. PBS was added at 25 μL per well, and the supernatant was removed to thus wash each well. The washing was performed twice in total. After removing the supernatant, the plate was dried with air at room temperature for 2 hours or more, and the 700 nm and 800 nm fluorescent signals were measured with Aerius (from Li-COR Biosciences). […]

[2] = system: human G12D mutant KRAS-positive pancreatic cancer line AsPC-1; experiment: Non-anchorage-dependent cell growth inhibition, spheroid 3D cell culture (Test Example 3); type: cell-based; details: Homo sapiens, ASPC1, 144 h, AsPC-1 spheroid 3D culture, 6 days, CellTiter Glo 2.0
Protocol: Test Example 3: Evaluation of Non-Anchorage-Dependent Cell Growth Inhibitory Effect on Human G12D Mutant KRAS-Positive Pancreatic Cancer Line AsPC-1
The non-anchorage-dependent cell growth inhibitory effect of test compounds was evaluated by spheroid 3D cell culture.
AsPC-1 cells were seeded on low-cell-adhesive round bottom 384-well plates (PrimeSurface: from Sumitomo Bakelite) at 36 μL/well to give 5×10^2 cells per well. As for the cell culture conditions, RPMI 1640 medium containing 10% fetal bovine serum was used in the presence of 5% CO2 at 37° C.
The next day, the test compounds (10 or 6 points having final concentrations in the range of 10 μM to 0.3 nM) and DMSO, which was the solvent for the test compounds, as a negative control were diluted 100-fold with a fresh medium and were added at 4 μL per well. After culturing in the presence of 5% CO2 at 37° C. for 6 days, CellTiter Glo 2.0 (from Promega) was added at 20 μL per well. After stirring with a plate mixer (from FINEPCR) at room temperature for 1 hour, the luminescent signals were measured with ARVO X3 (from PerkinElmer).
With the signaling value in treatment with DMSO taken as 100% and with the signaling value in the medium alone without cells taken as 0%, the 50% inhibitory concentration values (IC50) were calculated by Sigmoid-Emax nonlinear regression analysis.

| SMILES | IC50 [1] | DC50 (KRAS G12D protein) | IC50 [2] |
| --- | --- | --- | --- |
| Cc1ncoc1-c1ccc([C@H](CO)NC(=O)[C@@H]2C[C@@H](O)CN2C(=O)[C@H](C(C)C)n2cc(-c3ccc(COc4c(-c5c(C)c(F)cc6[nH]ncc56)c(C5CC5)cc5c(N(C)[C@H]6CCNC6)nc(OC[C@@H]6CCCO6)nc45)cc3)nn2)cc1 (atropisomer, axis not shown) [Example 28] | 5 nM | 47 nM | 5 nM |
| CCn1nccc1-c1ccc([C@H](CO)NC(=O)[C@@H]2C[C@@H](O)CN2C(=O)[C@H](C(C)C)n2cc(-c3ccc(COc4c(-c5c(C)c(F)cc6[nH]ncc56)c(C5CC5)cc5c(N(C)[C@H]6CCNC6)nc(OC[C@H]6CCCO6)nc45)cc3)nn2)cc1 (atropisomer, axis not shown) [Example 29] | 6 nM | 20 nM | 7 nM |
| Cc1c(F)cc2[nH]ncc2c1-c1c(C2CC2)cc2c(N(C)[C@H]3CCNC3)nc(OC[C@H]3CCCO3)nc2c1OCc1ccc(-c2cn([C@H](C(=O)N3C[C@H](O)C[C@H]3C(=O)N[C@@H](CO)c3ccc(-n4ccnc4C)cc3)C(C)C)nn2)cc1 (atropisomer, axis not shown) [Example 30] | 10 nM | 121 nM | 12 nM |
| Cc1ncoc1-c1ccc([C@H](CO)NC(=O)[C@@H]2C[C@@H](O)CN2C(=O)[C@H](C(C)C)n2cc(-c3ccc(COc4c(-c5c(C)c(F)cc6[nH]ncc56)c(C5CC5)cc5c(N(C)[C@H]6CCNC6)nc(OC[C@H]6CCCO6)nc45)cc3)nn2)cc1 (atropisomer, axis not shown) [Example 31] | 20 nM | 59 nM | 18 nM |
| CCn1nccc1-c1ccc([C@H](CO)NC(=O)[C@@H]2C[C@@H](O)CN2C(=O)[C@H](C(C)C)n2cc(-c3ccc(COc4c(-c5c(C)c(F)cc6[nH]ncc56)c(C5CC5)cc5c(N(C)[C@H]6CCNC6)nc(OC[C@H]6CCCO6)nc45)cc3)nn2)nc1 (atropisomer, axis not shown) [Example 32] | 37 nM | 51 nM | 24 nM |
| Cc1ncsc1-c1ccc([C@H](CO)NC(=O)[C@@H]2C[C@@H](O)CN2C(=O)[C@H](C(C)C)n2cc(-c3ccc(COc4c(-c5c(C)c(F)cc6[nH]ncc56)c(C5CC5)cc5c(N(C)[C@H]6CCNC6)nc(OCC(C)(C)F)nc45)cc3)nn2)cc1 (atropisomer, axis not shown) [Example 33] | 45 nM | 33 nM | 24 nM |
| Cc1ncsc1-c1ccc([C@H](CO)NC(=O)[C@@H]2C[C@@H](O)CN2C(=O)[C@H](C(C)C)n2cc(-c3ccc(COc4c(-c5c(C)c(F)cc6[nH]ncc56)c(C5CC5)cc5c(N(C)[C@H]6CCNC6)nc(OCC(C)C)nc45)cc3)nn2)cc1 (atropisomer, axis not shown) [Example 34] | 21 nM | 53 nM | 13 nM |
| Cc1ncsc1-c1ccc([C@H](CO)NC(=O)[C@@H]2C[C@@H](O)CN2C(=O)[C@H](C(C)C)n2cc(-c3ccc(COc4c(-c5c(C)c(F)cc6[nH]ncc56)c(C5CC5)cc5c(N(C)[C@H]6CCNC6)nc(OC[C@H](C)F)nc45)cc3)nn2)cc1 (atropisomer, axis not shown) [Example 35] | 12 nM | 63 nM | 9 nM |
| Cc1ncsc1-c1ccc([C@H](CO)NC(=O)[C@@H]2C[C@@H](O)CN2C(=O)[C@H](C(C)C)n2cc(-c3ccc(COc4c(-c5c(C)c(F)cc6[nH]ncc56)c(C5CC5)cc5c(N(C)[C@H]6CCNC6)nc(OCC(C)(F)F)nc45)cc3)nn2)cc1 (atropisomer, axis not shown) [Example 36] | 21 nM | 82 nM | 19 nM |
| Cc1ncsc1-c1ccc([C@H](CO)NC(=O)[C@@H]2C[C@@H](O)CN2C(=O)[C@H](C(C)C)n2cc(-c3ccc(COc4c(-c5c(C)c(F)cc6[nH]ncc56)c(C5CC5)cc5c(N(C)[C@H]6CCNC6)nc(OCCC(F)(F)F)nc45)cc3)nn2)cc1 (atropisomer, axis not shown) [Example 37] | 32 nM | 58 nM | 32 nM |
| Cc1ncsc1-c1ccc([C@H](CO)NC(=O)[C@@H]2C[C@@H](O)CN2C(=O)[C@H](C(C)C)n2cc(-c3ccc(COc4c(-c5c(C)c(F)cc6[nH]ncc56)c(C5CC5)cc5c(N(C)[C@H]6CCNC6)nc(OCCCF)nc45)cc3)nn2)cc1 (atropisomer, axis not shown) [Example 38] | 36 nM | 25 nM | 36 nM |
